Read-outs that look alike come from different tables or passages of the source.
Experiments:
ABHD6 [1] = molecular target: T1, ABHD6 (Mus musculus (Mouse), UniProt Q8R2Y0); test: Mouse brain proteomes from inhibitor treated mice (oral gavage, sacrificed 4 h after administration, ABPP analysis), ABHD6; assay type: in vivo, mouse (C57Bl/6J); details: 5 mg/kg oral gavage
Protocol: (§1) Preparation of Mouse Brain Proteomes from Inhibitor Treated Mice.
(§2) Inhibitors were administered to wild-type C57Bl/6J by oral gavage in a vehicle, e.g. PEG400/Ethanol/PBS (7/2/1). Each animal was sacrificed 4 h following administration and brain proteomes were prepared and analyzed according to previously established methods (See Niphakis, M. J., et al. (2011) ACS Chem. Neurosci. and Long, J. Z., et al. Nat. Chem. Biol. 5:37-44). Data from this assay is shown in Table 2 (% inhibition at 5 mg/kg).

MAGL [2] = molecular target: T2, MAGL (Mus musculus (Mouse), UniProt O35678); test: Mouse brain proteomes from inhibitor treated mice (oral gavage, sacrificed 4 h after administration, ABPP analysis); assay type: in vivo, mouse (C57Bl/6J); details: 5 mg/kg oral gavage
T2 sequence (O35678 whole entry): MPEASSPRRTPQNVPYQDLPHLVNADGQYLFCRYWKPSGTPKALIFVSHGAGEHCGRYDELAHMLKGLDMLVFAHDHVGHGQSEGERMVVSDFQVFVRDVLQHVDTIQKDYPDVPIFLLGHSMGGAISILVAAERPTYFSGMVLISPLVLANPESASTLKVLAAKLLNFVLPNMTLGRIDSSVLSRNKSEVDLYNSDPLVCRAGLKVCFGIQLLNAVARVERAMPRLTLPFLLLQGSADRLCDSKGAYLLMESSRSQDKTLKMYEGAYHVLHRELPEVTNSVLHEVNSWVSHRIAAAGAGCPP
Protocol: as §1, §2

FAAH [3] = molecular target: T3, FAAH (Mus musculus (Mouse), UniProt O08914); test: In vitro competitive activity-based protein profiling (mouse brain membrane fraction or cell lysates), FAAH band; assay type: biochemical; details: for inhibition at 1 µM: read-out: FAAH % Inh 1 μM (mouse); for IC50: competitive ABPP
T3 sequence (O08914 whole entry): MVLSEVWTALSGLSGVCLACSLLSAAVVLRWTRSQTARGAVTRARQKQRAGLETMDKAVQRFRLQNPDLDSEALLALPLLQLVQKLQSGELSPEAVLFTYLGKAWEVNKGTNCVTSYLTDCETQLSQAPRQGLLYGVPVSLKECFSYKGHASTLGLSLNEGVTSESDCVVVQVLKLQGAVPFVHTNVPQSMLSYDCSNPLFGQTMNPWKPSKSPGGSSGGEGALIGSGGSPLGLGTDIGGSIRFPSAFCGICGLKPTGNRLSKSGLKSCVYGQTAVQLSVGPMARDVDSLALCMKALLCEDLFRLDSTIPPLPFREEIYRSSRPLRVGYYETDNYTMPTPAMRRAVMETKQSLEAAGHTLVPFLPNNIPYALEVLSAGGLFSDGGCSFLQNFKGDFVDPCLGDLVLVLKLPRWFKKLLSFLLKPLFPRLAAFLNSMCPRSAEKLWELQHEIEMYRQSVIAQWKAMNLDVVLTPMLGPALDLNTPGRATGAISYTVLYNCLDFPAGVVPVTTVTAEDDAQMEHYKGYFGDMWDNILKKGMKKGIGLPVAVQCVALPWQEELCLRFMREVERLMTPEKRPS
In short: (§3)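 Mouse proteome samples (brain membrane fraction or cell lysate, 1.0 mg/mL protein) were pretreated with varying inhibitor concentrations and subsequently probed with fluorophosphonate-rhodamine, each step lasting 30 min at 37° C. Labelled proteins were separated by SDS-PAGE, and band fluorescence was imaged and quantified.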

MAGL [4] = molecular target: T2, MAGL; test: In vitro competitive activity-based protein profiling (mouse brain membrane fraction or cell lysates), MAGL band; assay type: biochemical; details: for inhibition at 1 µM: read-out: MAGL % Inh 1 μM (mouse); for IC50: competitive ABPP
Protocol: In Vitro Competitive Activity-Based Protein Profiling.
Proteomes (mouse brain membrane fraction or cell lysates) (50 μL, 1.0 mg/mL total protein concentration) were preincubated with varying concentrations of inhibitors at 37° C. After 30 min, FP—Rh (1.0 μL, 50 μM in DMSO) was added and the mixture was incubated for another 30 min at 37° C. Reactions were quenched with SDS loading buffer (50 μL-4×) and run on SDS-PAGE.

FAAH [5] = molecular target: T3, FAAH; test: Mouse brain proteomes from inhibitor treated mice (oral gavage, sacrificed 4 h after administration, ABPP analysis), FAAH; assay type: in vivo, mouse (C57Bl/6J); details: 5 mg/kg oral gavage
Protocol: as §1, §2

ABHD6 [6] = molecular target: T1, ABHD6; test: In vitro competitive activity-based protein profiling (mouse brain membrane fraction or cell lysates), ABHD6 band; assay type: biochemical; details: for inhibition at 1 µM: read-out: ABHD6 % Inh 1 μM (mouse); for IC50: competitive ABPP
In short: as §3

T1 sequence (Q8R2Y0 whole entry): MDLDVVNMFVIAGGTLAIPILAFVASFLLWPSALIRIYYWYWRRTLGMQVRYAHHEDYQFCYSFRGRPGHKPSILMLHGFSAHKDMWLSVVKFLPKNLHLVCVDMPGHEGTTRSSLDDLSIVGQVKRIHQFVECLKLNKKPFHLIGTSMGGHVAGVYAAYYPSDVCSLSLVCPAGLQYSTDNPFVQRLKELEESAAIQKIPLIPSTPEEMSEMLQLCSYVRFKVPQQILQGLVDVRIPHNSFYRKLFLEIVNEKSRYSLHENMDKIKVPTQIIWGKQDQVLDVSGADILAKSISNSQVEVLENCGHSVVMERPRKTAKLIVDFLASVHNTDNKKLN

Row | Structure (SMILES) | ABHD6 % Inh 5 mg/kg (mouse) (ABHD6 [1]) | MAGL % Inh 5 mg/kg (mouse) (MAGL [2]) | inhibition at 1 µM (FAAH [3]; mouse proteome) [%] | IC50 (FAAH [3]; mouse proteome) [nM] | inhibition at 1 µM (MAGL [4]; mouse proteome) [%] | IC50 (MAGL [4]; mouse proteome) [nM] | FAAH % Inh 5 mg/kg (mouse) (FAAH [5]) | inhibition at 1 µM (ABHD6 [6]; mouse proteome) [%] | IC50 (ABHD6 [6]; mouse proteome) [nM] | inhibition at 1 µM (FAAH [3]; mouse) [%] | inhibition at 1 µM (MAGL [4]; mouse) [%] | inhibition at 1 µM (ABHD6 [6]; mouse) [%]
1 | CCN1CCN(c2cc(C(F)(F)F)ccc2CN2CCCC23CCN(C(=O)OC(C(F)(F)F)C(F)(F)F)CC3)CC1 [Example 87, 1,1,1,3,3,3-Hexafluoropropan-2-yl 1-(2-(4-ethylpiperazin-1-yl)-4-(trifluoromethyl)benzyl)-1,8-diazaspiro[4.5]decane-8-carboxylate] | # (# is <25%) | ## (## is equal to or greater than 25% but less than 75%) | < 25 | > 1000 | > 75 | < 100 | # (# is <25%) | < 25 | > 1000 | – | – | –
2 | O=C(OC(C(F)(F)F)C(F)(F)F)N1CCC2(CCN(Cc3ccc(C(F)(F)F)c(N4CCCC4)c3)C2)CC1 [Example 157, 1,1,1,3,3,3-Hexafluoropropan-2-yl 2-(3-(pyrrolidin-1-yl)-4-(trifluoromethyl)benzyl)-2,8-diazaspiro[4.5]decane-8-carboxylate] | ## (## is equal to or greater than 25% but less than 75%) | ### (### is ≥75%) | < 25 | > 1000 | > 75 | < 100 | # (# is <25%) | ≥ 75 | 100 to 1000 | – | – | –
3 | CS(=O)(=O)N1CCN(c2cc(CN3CCCC34CCN(C(=O)OC(C(F)(F)F)C(F)(F)F)CC4)cc(C(F)(F)F)c2)CC1 [Example 43, 1,1,1,3,3,3-Hexafluoropropan-2-yl 1-(3-(4-(methylsulfonyl)piperazin-1-yl)-5-(trifluoromethyl)benzyl)-1,8-diazaspiro[4.5]decane-8-carboxylate] | # (# is <25%) | ## (## is equal to or greater than 25% but less than 75%) | < 25 | > 1000 | > 75 | < 100 | # (# is <25%) | < 25 | > 1000 | – | – | –
4 | O=C(O)C1CCCCN1c1cc(C(F)(F)F)ccc1CN1CCC2(CCN(C(=O)OC(C(F)(F)F)C(F)(F)F)CC2)C1 (stereo not shown) [Example 224] | – | – | – | – | – | – | – | – | – | < 25 | 25 to 75 | < 25
5 | O=C(OC(C(F)(F)F)C(F)(F)F)N1CCC2(CCCN2Cc2cccc(N3CCOCC3)c2)CC1 [Example 69, 1,1,1,3,3,3-Hexafluoropropan-2-yl 1-(3-morpholinobenzyl)-1,8-diazaspiro[4.5]decane-8-carboxylate] | – | – | < 25 | – | > 75 | – | – | < 25 | > 1000 | – | – | –
6 | O=C(OC(C(F)(F)F)C(F)(F)F)N1CCC2(CCN(Cc3ccc(N4CCCC4)c(C(F)(F)F)c3)C2)CC1 [Example 141, 1,1,1,3,3,3-Hexafluoropropan-2-yl 2-(4-(pyrrolidin-1-yl)-3-(trifluoromethyl)benzyl)-2,8-diazaspiro[4.5]decane-8-carboxylate] | – | – | < 25 | > 1000 | > 75 | 100 to 1000 | – | ≥ 75 | 100 to 1000 | – | – | –
7 | Cc1ccc(CN2CCC3(CCN(C(=O)OC(C(F)(F)F)C(F)(F)F)CC3)C2)cc1Cl [Example 136, 1,1,1,3,3,3-Hexafluoropropan-2-yl 2-(3-chloro-4-methylbenzyl)-2,8-diazaspiro[4.5]decane-8-carboxylate] | – | – | < 25 | > 1000 | > 75 | 100 to 1000 | – | ≥ 75 | 100 to 1000 | – | – | –
8 | O=C(OC(C(F)(F)F)C(F)(F)F)N1CCC2(CCCN2Cc2cccc(OCCN3CCCCC3)c2)CC1 [Example 11, 1,1,1,3,3,3-Hexafluoropropan-2-yl 1-(3-(2-(piperidin-1-yl)ethoxy)benzyl)-1,8-diazaspiro[4.5]decane-8-carboxylate] | – | – | < 25 | > 1000 | > 75 | 100 to 1000 | – | < 25 | > 1000 | – | – | –
9 | O=C(O)[C@H]1CCCN(c2cc(CN3CCCC34CCN(C(=O)OC(C(F)(F)F)C(F)(F)F)CC4)cc(C(F)(F)F)c2)C1 [Example 213] | – | – | < 25 | – | > 75 | – | – | < 25 | – | – | – | –

Further lines, results first:

Row | ABHD6 % Inh 5 mg/kg (mouse) (ABHD6 [1]) | MAGL % Inh 5 mg/kg (mouse) (MAGL [2]) | inhibition at 1 µM (FAAH [3]; mouse proteome) [%] | IC50 (FAAH [3]; mouse proteome) [nM] | inhibition at 1 µM (MAGL [4]; mouse proteome) [%] | IC50 (MAGL [4]; mouse proteome) [nM] | FAAH % Inh 5 mg/kg (mouse) (FAAH [5]) | inhibition at 1 µM (ABHD6 [6]; mouse proteome) [%] | IC50 (ABHD6 [6]; mouse proteome) [nM] | inhibition at 1 µM (FAAH [3]; mouse) [%] | inhibition at 1 µM (MAGL [4]; mouse) [%] | inhibition at 1 µM (ABHD6 [6]; mouse) [%] | Structure (SMILES)
10 | # (# is <25%) | ### (### is ≥75%) | < 25 | > 1000 | > 75 | < 100 | # (# is <25%) | < 25 | > 1000 | – | – | – | Cc1cc(CN2CCCC23CCN(C(=O)OC(C(F)(F)F)C(F)(F)F)CC3)ccc1Cl [Example 124, 1,1,1,3,3,3-Hexafluoropropan-2-yl 1-(4-chloro-3-methylbenzyl)-1,8-diazaspiro[4.5]decane-8-carboxylate]
11 | # (# is <25%) | ### (### is ≥75%) | < 25 | > 1000 | > 75 | < 100 | # (# is <25%) | < 25 | > 1000 | – | – | – | Cc1ccc(CN2CCCC23CCN(C(=O)OC(C(F)(F)F)C(F)(F)F)CC3)cc1Cl [Example 125, 1,1,1,3,3,3-Hexafluoropropan-2-yl 1-(3-chloro-4-methylbenzyl)-1,8-diazaspiro[4.5]decane-8-carboxylate]
12 | – | – | – | – | – | – | – | – | – | < 25 | 25 to 75 | < 25 | COc1ccc(CN2CCCC23CCN(C(=O)OC(C(F)(F)F)C(F)(F)F)CC3)cc1C(=O)O [Example 254]
13 | – | – | < 25 | > 1000 | > 75 | < 100 | – | < 25 | > 1000 | – | – | – | O=C(OC(C(F)(F)F)C(F)(F)F)N1CCC2(CCCN2Cc2cc(Cl)cc(N3CCC(F)CC3)c2)CC1 [Example 39, 1,1,1,3,3,3-Hexafluoropropan-2-yl 1-(3-chloro-5-(4-fluoropiperidin-1-yl)benzyl)-1,8-diazaspiro[4.5]decane-8-carboxylate]
14 | – | – | < 25 | > 1000 | > 75 | < 100 | – | ≥ 75 | 100 to 1000 | – | – | – | Cc1cc(CN2CCC3(CCN(C(=O)OC(C(F)(F)F)C(F)(F)F)CC3)C2)ccc1Cl [Example 135, 1,1,1,3,3,3-Hexafluoropropan-2-yl 2-(4-chloro-3-methylbenzyl)-2,8-diazaspiro[4.5]decane-8-carboxylate]
15 | – | – | < 25 | > 1000 | > 75 | < 100 | – | < 25 | > 1000 | – | – | – | O=C(OC(C(F)(F)F)C(F)(F)F)N1CCC2(CCCN2Cc2ccc(C(F)(F)F)cc2OC2CCS(=O)(=O)CC2)CC1 [Example 175, 1,1,1,3,3,3-Hexafluoropropan-2-yl 1-(2-((1,1-dioxidotetrahydro-2H-thiopyran-4-yl)oxy)-4-(trifluoromethyl)benzyl)-1,8-diazaspiro[4.5]decane-8-carboxylate]

— patent US10030020B2, “Spirocycle compounds and methods of making and using same” (Abide Therapeutics, Inc., priority 2016, dated 2018)
